The test system of one assay is BA/F3 (insSVD) cells. The assay can be described thus: Ba/F3 cell survival assay (Cell Titer-Glo), EGFR-insSVD. The format is cell-based. As to conditions: Mus musculus, BaF3, 48 h, without IL-3, with EGF. A digest of the protocol:
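Viability read by CellTiter-Glo luminescence after 48 h compound exposure at 37° C, 4000 cells/well. Retrovirally transduced, puromycin-selected Ba/F3 lines carrying EGFR-insSVD ± T790M grew IL-3-free with 10 ng/mL EGF for 2 days beforehand; compound delivered by 100 nL pin.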
A general note: ATP-based viability assays read luminescence as a measure of living cells.

Assay [1] deals with mutEGFR (D770_N771insSVD) (Homo sapiens, UniProt P00533, INS767SVD). Kind of assay: Exon20-mutant-EGFR (D770_N771insSVD) TR-FRET kinase assay. Type of assay: biochemical. As to conditions: 2 mM ATP, 15 min preincubation. A digest of the protocol: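 GST-fused human EGFR fragment R669-A1210 carrying the SVD insertion, Sf9-expressed, typically 15 pg/μl, was preincubated with compound for 15 min at 22° C in pH 7.0 Hepes/MgCl2 buffer. Phosphorylation was read by HTRF (665/620 nm ratio), normalised to no-inhibitor and no-enzyme controls.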
Chain of mutEGFR (D770_N771insSVD) (P00533 with tags, fused parts or gaps INS767SVD limits assumed): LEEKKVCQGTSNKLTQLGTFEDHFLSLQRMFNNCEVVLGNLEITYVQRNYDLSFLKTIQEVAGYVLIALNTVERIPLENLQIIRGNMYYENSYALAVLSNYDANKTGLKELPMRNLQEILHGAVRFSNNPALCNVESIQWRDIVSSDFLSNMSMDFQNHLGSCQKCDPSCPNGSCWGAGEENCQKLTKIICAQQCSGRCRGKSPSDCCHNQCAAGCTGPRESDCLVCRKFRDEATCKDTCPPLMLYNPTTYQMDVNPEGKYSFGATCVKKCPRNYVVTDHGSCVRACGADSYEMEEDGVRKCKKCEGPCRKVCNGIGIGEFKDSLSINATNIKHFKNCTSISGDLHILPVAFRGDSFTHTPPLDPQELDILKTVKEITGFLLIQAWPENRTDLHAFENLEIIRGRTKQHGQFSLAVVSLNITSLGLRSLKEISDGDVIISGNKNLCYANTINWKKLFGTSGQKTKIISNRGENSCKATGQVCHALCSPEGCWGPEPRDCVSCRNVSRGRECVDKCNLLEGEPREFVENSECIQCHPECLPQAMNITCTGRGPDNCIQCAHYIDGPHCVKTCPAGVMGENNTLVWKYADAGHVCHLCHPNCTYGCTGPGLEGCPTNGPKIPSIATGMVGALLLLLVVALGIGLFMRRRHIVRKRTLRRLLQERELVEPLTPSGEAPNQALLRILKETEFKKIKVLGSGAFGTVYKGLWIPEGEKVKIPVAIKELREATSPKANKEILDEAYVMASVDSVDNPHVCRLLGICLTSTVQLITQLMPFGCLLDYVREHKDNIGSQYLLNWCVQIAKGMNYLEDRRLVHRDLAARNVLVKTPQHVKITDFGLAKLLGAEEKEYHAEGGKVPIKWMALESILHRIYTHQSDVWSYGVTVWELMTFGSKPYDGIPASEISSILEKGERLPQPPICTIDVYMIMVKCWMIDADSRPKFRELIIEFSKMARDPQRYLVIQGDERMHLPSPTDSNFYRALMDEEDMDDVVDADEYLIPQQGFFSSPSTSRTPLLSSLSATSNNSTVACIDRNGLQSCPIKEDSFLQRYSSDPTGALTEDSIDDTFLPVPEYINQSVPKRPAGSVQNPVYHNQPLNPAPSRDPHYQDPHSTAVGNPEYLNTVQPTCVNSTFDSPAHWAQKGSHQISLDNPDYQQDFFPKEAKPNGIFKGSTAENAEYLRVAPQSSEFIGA

Assay [2] deals with mutEGFR (D770_N771insNPG, T790). The assay can be described thus: mutEGFR (D770_N771insNPG, T790) kinase assay. The format is biochemical, human.
Chain of mutEGFR (D770_N771insNPG, T790) (P00533 with tags, fused parts or gaps INS770NPG limits assumed): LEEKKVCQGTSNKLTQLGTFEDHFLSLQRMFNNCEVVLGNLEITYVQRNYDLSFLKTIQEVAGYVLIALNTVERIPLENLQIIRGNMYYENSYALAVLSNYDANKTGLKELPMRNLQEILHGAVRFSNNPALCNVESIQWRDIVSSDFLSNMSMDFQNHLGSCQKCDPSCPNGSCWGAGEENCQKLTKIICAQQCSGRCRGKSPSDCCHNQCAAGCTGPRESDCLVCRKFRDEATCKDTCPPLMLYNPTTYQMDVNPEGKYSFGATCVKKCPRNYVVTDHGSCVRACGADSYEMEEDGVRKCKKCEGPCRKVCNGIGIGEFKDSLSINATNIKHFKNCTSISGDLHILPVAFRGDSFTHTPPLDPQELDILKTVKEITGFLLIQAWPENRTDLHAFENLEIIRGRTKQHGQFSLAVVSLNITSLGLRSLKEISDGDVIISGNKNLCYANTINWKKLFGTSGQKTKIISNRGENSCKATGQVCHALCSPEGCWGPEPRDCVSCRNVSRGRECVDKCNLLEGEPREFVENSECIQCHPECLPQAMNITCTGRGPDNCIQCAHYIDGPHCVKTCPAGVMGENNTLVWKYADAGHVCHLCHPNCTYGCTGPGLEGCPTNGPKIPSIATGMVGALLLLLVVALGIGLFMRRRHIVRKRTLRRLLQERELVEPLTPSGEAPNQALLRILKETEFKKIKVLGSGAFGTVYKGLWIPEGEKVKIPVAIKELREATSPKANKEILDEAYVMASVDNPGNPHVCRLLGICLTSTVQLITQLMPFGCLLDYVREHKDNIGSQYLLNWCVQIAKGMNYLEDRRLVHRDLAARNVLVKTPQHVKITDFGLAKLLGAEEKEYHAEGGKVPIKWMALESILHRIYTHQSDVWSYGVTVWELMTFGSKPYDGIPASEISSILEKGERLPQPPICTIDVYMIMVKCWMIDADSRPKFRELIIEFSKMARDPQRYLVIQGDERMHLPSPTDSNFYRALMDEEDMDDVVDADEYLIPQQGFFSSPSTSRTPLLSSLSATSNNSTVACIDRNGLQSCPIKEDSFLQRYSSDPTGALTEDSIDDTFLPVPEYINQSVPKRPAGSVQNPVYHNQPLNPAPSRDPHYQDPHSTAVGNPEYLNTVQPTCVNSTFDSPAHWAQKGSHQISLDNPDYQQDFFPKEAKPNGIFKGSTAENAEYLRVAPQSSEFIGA

The record followed here is patent publication US20260035365A1, “1H-PYRROLO[3,2-B]PYRIDINE DERIVATIVES AS IRREVERSIBLE INHIBITORS OF MUTANT EGFR FOR THE TREATMENT OF CANCER” (Bayer Aktiengesellschaft, priority 2022, published 2026).

What is called IC50 is the midpoint of a concentration-inhibition curve. Higher therefore signals weaker potency in that assay. Consider `C=CC(=O)N1CCC[C@H]1COc1cnccc1-c1[nH]c2cccnc2c1-c1cc(C#N)ccc1F` [Example 90, 4-fluoro-3-[2-(3-{[(2S)-1-(prop-2-enoyl)pyrrolidin-2-yl]methoxy}pyridin-4-yl)-1H-pyrrolo[3,2-b]pyridin-3-yl]benzonitrile], for which the IC50 with BA/F3 (insSVD) cells turned out to be 999 nM; in assay [1], 34.3 nM; in assay [2] it was 62.5 nM.

With `C=C(F)C(=O)N1CCC[C@H]1COc1cnccc1-c1[nH]c2cccnc2c1-c1ccccc1` [Example 91, 2-fluoro-1-[(2S)-2-({[4-(3-phenyl-1H-pyrrolo[3,2-b]pyridin-2-yl)pyridin-3-yl]oxy}methyl)pyrrolidin-1-yl]prop-2-en-1-one], the IC50 in the assay on BA/F3 (insSVD) cells turned out to be 1470 nM; in assay [1], 77.3 nM; in assay [2] it was 769 nM.

For the molecule `C/C=C/C(=O)N1CCC[C@H]1COc1cnccc1-c1[nH]c2cccnc2c1-c1ccccc1` [Example 92, (2E)-1-[(2S)-2-({[4-(3-phenyl-1H-pyrrolo[3,2-b]pyridin-2-yl)pyridin-3-yl]oxy}methyl)pyrrolidin-1-yl]but-2-en-1-one], the IC50 in the assay on BA/F3 (insSVD) cells is 7050 nM; in assay [1], 3750 nM; in assay [2], over 20000 nM.

For `C#CC(=O)N1CCC[C@H]1COc1cnccc1-c1[nH]c2cccnc2c1-c1ccccc1` [Example 93, 1-[(2S)-2-({[4-(3-phenyl-1H-pyrrolo[3,2-b]pyridin-2-yl)pyridin-3-yl]oxy}methyl)pyrrolidin-1-yl]prop-2-yn-1-one], the values for the concentration for half-maximal inhibition (IC50) (with BA/F3 (insSVD) cells; in assay [1]; in assay [2]) were 55.3 nM, 1.02 nM and 3.14 nM, respectively.

Regarding `CC#CC(=O)N1CCC[C@H]1COc1cnccc1-c1[nH]c2cccnc2c1-c1ccccc1` [Example 94, 1-[(2S)-2-({[4-(3-phenyl-1H-pyrrolo[3,2-b]pyridin-2-yl)pyridin-3-yl]oxy}methyl)pyrrolidin-1-yl]but-2-yn-1-one], the values for the IC50 (with BA/F3 (insSVD) cells; in assay [1]; in assay [2]) were 2440 nM, 365 nM and over 1630 nM, respectively.

Turning to `Cn1ccc(C#CC(=O)N2CCC[C@H]2COc2cnccc2-c2[nH]c3cccnc3c2-c2ccccc2)n1` [Example 95, 3-(1-methyl-1H-pyrazol-3-yl)-1-[(2S)-2-({[4-(3-phenyl-1H-pyrrolo[3,2-b]pyridin-2-yl)pyridin-3-yl]oxy}methyl)pyrrolidin-1-yl]prop-2-yn-1-one], the concentration for half-maximal inhibition (IC50) in the assay on BA/F3 (insSVD) cells turned out to be 682 nM; in assay [1], 71.2 nM; in assay [2], 246 nM.

In the case of `CN(C)C/C=C/C(=O)N1CCC[C@H]1COc1cnccc1-c1[nH]c2cccnc2c1-c1cccc(C(F)(F)F)c1` [Example 96, (2E)-4-(dimethylamino)-1-[(2S)-2-{[(4-{3-[3-(trifluoromethyl)phenyl]-1H-pyrrolo[3,2-b]pyridin-2-yl}pyridin-3-yl)oxy]methyl}pyrrolidin-1-yl]but-2-en-1-one], the IC50 in the assay with BA/F3 (insSVD) cells came out at 373 nM; in assay [1] it was 3.45 nM; in assay [2] it was 22.1 nM.

`CN(C)C/C=C/C(=O)N1CCC[C@H]1COc1cnccc1-c1[nH]c2cccnc2c1-c1cc(Cl)ccc1F` [Example 97, (2E)-1-{(2S)-2-[({4-[3-(5-chloro-2-fluorophenyl)-1H-pyrrolo[3,2-b]pyridin-2-yl]pyridin-3-yl}oxy)methyl]pyrrolidin-1-yl}-4-(dimethylamino)but-2-en-1-one]: the 50% inhibitory concentration (IC50) in the assay on BA/F3 (insSVD) cells turned out to be 179 nM; in assay [1], 2.03 nM; in assay [2] it was 8.62 nM.

For `CN(C)C/C=C\C(=O)N1CCC[C@H]1COc1cnccc1-c1[nH]c2cccnc2c1-c1ccccc1` [Example 98, (2Z)-4-(dimethylamino)-1-[(2S)-2-({[4-(3-phenyl-1H-pyrrolo[3,2-b]pyridin-2-yl)pyridin-3-yl]oxy}methyl)pyrrolidin-1-yl]but-2-en-1-one], the half-inhibitory concentration (IC50) came out at 747 nM in the assay with BA/F3 (insSVD) cells, 14.6 nM in assay [1] and 59.1 nM in assay [2].

As to `O=C(/C=C/CN1CCCC1)N1CCC[C@H]1COc1cnccc1-c1[nH]c2cccnc2c1-c1ccccc1` [Example 99, (2E)-1-[(2S)-2-({[4-(3-phenyl-1H-pyrrolo[3,2-b]pyridin-2-yl)pyridin-3-yl]oxy}methyl)pyrrolidin-1-yl]-4-(pyrrolidin-1-yl)but-2-en-1-one], the values for the concentration for half-maximal inhibition (IC50) (in the assay on BA/F3 (insSVD) cells; in assay [1]; in assay [2]) were 115 nM, 2.32 nM and 10.8 nM, respectively.

For the molecule `CN(C)CC#CC(=O)N1CCC[C@H]1COc1cnccc1-c1[nH]c2cccnc2c1-c1ccccc1` [Example 100, 4-(dimethylamino)-1-[(2S)-2-({[4-(3-phenyl-1H-pyrrolo[3,2-b]pyridin-2-yl)pyridin-3-yl]oxy}methyl)pyrrolidin-1-yl]but-2-yn-1-one], the figures for the IC50 (in the assay with BA/F3 (insSVD) cells; in assay [1]; in assay [2]) were 57.5 nM, 1.11 nM and 4.67 nM, respectively.

With `C=CS(=O)(=O)N1CCC[C@H]1COc1cnccc1-c1[nH]c2cccnc2c1-c1cc(C(F)(F)F)ccc1F` [Example 101, 2-(3-{[(2S)-1-(ethenesulfonyl)pyrrolidin-2-yl]methoxy}pyridin-4-yl)-3-[2-fluoro-5-(trifluoromethyl)phenyl]-1H-pyrrolo[3,2-b]pyridine], the IC50 with BA/F3 (insSVD) cells worked out at 957 nM; in assay [1], 52.2 nM; in assay [2], 89.8 nM.

`C#Cc1cccc(-c2c(-c3ccncc3OC[C@@H]3CCCN3C(=O)C=C)[nH]c3cccnc23)c1` [Example 102, 1-{(2S)-2-[({4-[3-(3-ethynylphenyl)-1H-pyrrolo[3,2-b]pyridin-2-yl]pyridin-3-yl}oxy)methyl]pyrrolidin-1-yl}prop-2-en-1-one]: the IC50 in the assay with BA/F3 (insSVD) cells came to 135 nM; in assay [1] it was 0.417 nM; in assay [2], 1.29 nM.

On to `C=CC(=O)N1CCC[C@H]1COc1cnccc1-c1[nH]c2cccnc2c1-c1ccc(F)c(OC(F)F)c1` [Example 103, 1-[(2S)-2-{[(4-{3-[3-(difluoromethoxy)-4-fluorophenyl]-1H-pyrrolo[3,2-b]pyridin-2-yl}pyridin-3-yl)oxy]methyl}pyrrolidin-1-yl]prop-2-en-1-one], for which the values for the half-inhibitory concentration (IC50) (in the assay with BA/F3 (insSVD) cells; in assay [1]; in assay [2]) were 650 nM, 3.56 nM and 16.9 nM, respectively.

In the case of `CN(C)C/C=C/C(=O)N1CCC[C@H]1COc1cnccc1-c1[nH]c2cccnc2c1-c1ccc(F)c(OC(F)F)c1` [Example 104, (2E)-1-[(2S)-2-{[(4-{3-[3-(difluoromethoxy)-4-fluorophenyl]-1H-pyrrolo[3,2-b]pyridin-2-yl}pyridin-3-yl)oxy]methyl}pyrrolidin-1-yl]-4-(dimethylamino)but-2-en-1-one], the results for the IC50 (with BA/F3 (insSVD) cells; in assay [1]; in assay [2]) were 1380 nM, 36.9 nM and 149 nM, respectively.

Take `C=CS(=O)(=O)N1CCC[C@H]1COc1cnccc1-c1[nH]c2cccnc2c1-c1ccc(F)c(OC(F)F)c1` [Example 105, 3-[3-(difluoromethoxy)-4-fluorophenyl]-2-(3-{[(2S)-1-(ethenesulfonyl)pyrrolidin-2-yl]methoxy}pyridin-4-yl)-1H-pyrrolo[3,2-b]pyridine]: the IC50 in the assay on BA/F3 (insSVD) cells came to 31.1 nM; in assay [1], 0.207 nM; in assay [2] it was 0.537 nM.

Regarding `C=CC(=O)N1CCC[C@H]1COc1cnccc1-c1[nH]c2cccnc2c1-c1ccc(F)c(OC(F)(F)F)c1` [Example 106, 1-[(2S)-2-{[(4-{3-[4-fluoro-3-(trifluoromethoxy)phenyl]-1H-pyrrolo[3,2-b]pyridin-2-yl}pyridin-3-yl)oxy]methyl}pyrrolidin-1-yl]prop-2-en-1-one], the IC50 in the assay on BA/F3 (insSVD) cells is 1630 nM; in assay [1] it was 13.3 nM; in assay [2], 77.4 nM.
